Assays:
PRMT5/MEP50 complex = PRMT5/MEP50 complex (Homo sapiens, UniProt O14744); assay: Inhibition of recombinant human fetal brain FLAG-tagged PRMT5/full length human testis 6His-tagged MEP50 expressed in baculovirus infected insect Sf9 cells using human histone H4 (1 to 15 residues) as substrate preincubated for 30 mins followed by [3H]-SAM addition
[1] = Antiproliferative activity against human Z138 cells assessed as inhibition of cell viability after 5 days by Cell-Titer Glo assay; type: functional, cell-based; conditions: Z-138, 120 h
[2] = target: Protein arginine N-methyltransferase 5 (Homo sapiens, UniProt O14744); assay: Inhibition of PRMT5 in human Z138 cells assessed as decrease in di-methyl arginine levels after 96 hrs by Western blot method; type: cell-based
Chain of Protein arginine N-methyltransferase 5 (O14744 whole entry): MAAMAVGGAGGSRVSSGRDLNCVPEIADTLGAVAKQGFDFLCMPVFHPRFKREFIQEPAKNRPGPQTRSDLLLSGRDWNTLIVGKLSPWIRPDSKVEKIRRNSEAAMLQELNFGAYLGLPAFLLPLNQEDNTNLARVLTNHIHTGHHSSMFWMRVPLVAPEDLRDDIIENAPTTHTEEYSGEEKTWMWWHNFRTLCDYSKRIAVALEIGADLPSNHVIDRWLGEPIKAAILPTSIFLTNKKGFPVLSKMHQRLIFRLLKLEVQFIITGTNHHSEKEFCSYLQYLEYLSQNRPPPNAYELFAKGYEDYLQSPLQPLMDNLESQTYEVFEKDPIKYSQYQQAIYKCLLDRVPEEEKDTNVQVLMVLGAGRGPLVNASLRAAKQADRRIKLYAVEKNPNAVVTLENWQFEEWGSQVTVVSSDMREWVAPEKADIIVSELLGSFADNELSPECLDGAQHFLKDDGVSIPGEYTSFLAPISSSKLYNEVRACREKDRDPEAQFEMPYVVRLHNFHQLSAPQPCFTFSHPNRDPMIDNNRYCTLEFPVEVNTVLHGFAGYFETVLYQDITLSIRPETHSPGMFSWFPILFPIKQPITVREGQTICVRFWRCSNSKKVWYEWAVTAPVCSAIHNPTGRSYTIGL

Chain of PRMT5/MEP50 complex (O14744 whole entry, the tested form may be a part): as the sequence (O14744 whole entry) above
Chain of PRMT5/MEP50 complex (Q9BQA1 whole entry, further chain, the tested form may be a part): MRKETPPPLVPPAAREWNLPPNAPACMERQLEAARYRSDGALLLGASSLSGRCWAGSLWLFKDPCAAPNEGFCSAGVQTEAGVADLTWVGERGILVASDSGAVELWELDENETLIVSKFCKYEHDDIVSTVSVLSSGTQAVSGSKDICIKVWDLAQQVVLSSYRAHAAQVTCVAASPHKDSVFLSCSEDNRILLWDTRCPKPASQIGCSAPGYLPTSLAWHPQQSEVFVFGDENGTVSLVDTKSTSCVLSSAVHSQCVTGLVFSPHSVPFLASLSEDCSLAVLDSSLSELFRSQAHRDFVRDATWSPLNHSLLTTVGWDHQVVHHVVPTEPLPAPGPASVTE

Compound	IC50 (PRMT5/MEP50 complex) [µM]	EC50 [1] [µM]	EC50 [2] [µM]
COC(=O)c1cncc(-c2cccc(OCC(O)CN3CCc4ccccc4C3)c2)c1 (stereo unspecified)	1 to 10	> 20	> 20
Cn1ncc2cnc(-c3cccc(OCC(O)CN4CCc5ccccc5C4)c3)cc21 (stereo unspecified)	0.101 to 1	10 to 40	0.101 to 1
OC(COc1cccc(-c2ccc3ncn(C4CCNCC4)c3c2)c1)CN1CCc2ccccc2C1 (stereo unspecified)	< 0.1	1 to 10	0.101 to 1
O=C(Cn1ccc2cnc(-c3cccc(OCC(O)CN4CCc5ccccc5C4)c3)nc21)N1CCOCC1 (stereo unspecified)	0.101 to 1	10 to 40	0.101 to 1
Cn1ccc2ccc(-c3cccc(OCC(O)CN4CCc5ccccc5C4)c3)nc21 (stereo unspecified)	< 0.1	> 20	0.101 to 1
CN1CCC(n2cnc3ccc(-c4cccc(OCC(O)CN5CCc6ccccc6C5)c4)cc32)C1 (stereo unspecified)	< 0.1	1 to 10	0.101 to 1
Cn1cncc1C(=O)Nc1cccc(OC[C@H](O)CN2CCc3ccccc3C2)c1	0.101 to 1	10 to 40	0.101 to 1
CN1CCN(C(=O)Cn2ccc3cnc(-c4ccnc(NCC(O)CN5CCc6ccccc6C5)c4)nc32)CC1 (stereo unspecified)	< 0.1	1 to 10	< 0.1
Cn1cnc(C(=O)Nc2cccc(OCC(O)CN3CCc4ccccc4C3)c2)c1 (stereo unspecified)	1 to 10	> 20	1 to 10
CN1CCC(n2cnc3ccc(-c4ccnc(NCC(O)CN5CCc6ccccc6C5)c4)cc32)C1 (stereo unspecified)	< 0.1	1 to 10	0.101 to 1
O[C@H](COc1cccc(-c2cccc3cccnc23)c1)CN1CCc2ccccc2C1	0.101 to 1	> 20	1 to 10
Cn1cnc2cnc(-c3cccc(OCC(O)CN4CCc5ccccc5C4)c3)nc21 (stereo unspecified)	0.101 to 1	1 to 10	0.101 to 1
O=C(Cn1cnc2ccc(-c3cccc(OCC(O)CN4CCc5ccccc5C4)c3)cc21)N1CCCCC1 (stereo unspecified)	0.101 to 1	10 to 40	0.101 to 1
Cn1cc2ccc(-c3cccc(NCC(O)CN4CCc5ccccc5C4)c3)nc2n1 (stereo unspecified)	< 0.1	10 to 40	0.101 to 1
O=C(Cn1ccc2cnc(-c3ccnc(NCC(O)CN4CCc5ccccc5C4)c3)nc21)N1CCCCC1 (stereo unspecified)	< 0.1	0.101 to 1	< 0.1
OC(CNc1cccc(-c2cccc3[nH]cnc23)c1)CN1CCc2ccccc2C1 (stereo unspecified)	0.101 to 1	10 to 40	0.101 to 1

Compound	IC50 (PRMT5/MEP50 complex) [µM]	EC50 [1] [µM]	EC50 [2] [µM]
Cn1cnc2ccc(-c3cc(NCC(O)CN4CCc5ccccc5C4)ncn3)cc21 (stereo unspecified)	0.101 to 1	1 to 10	0.101 to 1
CN1CCN(C(=O)Cn2ccc3cnc(-c4cccc(OCC(O)CN5CCc6ccccc6C5)c4)nc32)CC1 (stereo unspecified)	0.101 to 1	10 to 40	0.101 to 1
CNC(=O)Cn1ccc2cnc(-c3ccnc(NCC(O)CN4CCc5ccccc5C4)c3)nc21 (stereo unspecified)	< 0.1	1 to 10	0.101 to 1
O[C@@H](COc1cccc(-c2cccc3cccnc23)c1)CN1CCc2ccccc2C1	< 0.1	1 to 10	0.101 to 1
Cn1cc2ccc(-c3cccc(OCC(O)CN4CCc5ccccc5C4)c3)nc2n1 (stereo unspecified)	< 0.1	10 to 40	0.101 to 1
Cn1ncc2ccc(-c3cc(NCC(O)CN4CCc5ccccc5C4)ncn3)cc21 (stereo unspecified)	0.101 to 1	> 20	0.101 to 1
Cn1cnc2ccc(-c3ccnc(NCC(O)CN4CCc5ccccc5C4)c3)nc21 (stereo unspecified)	< 0.1	1 to 10	< 0.1
CC(C)Oc1ccc(F)c(-c2cccc(OCC(O)CN3CCc4ccccc4C3)c2)c1 (stereo unspecified)	0.101 to 1	> 20	1 to 10
OC(CNc1cc(-c2ccc3ncn(C4CCNC4)c3c2)ccn1)CN1CCc2ccccc2C1 (stereo unspecified)	< 0.1	1 to 10	0.101 to 1
CC(=O)Nc1cccc(-c2cccc(OCC(O)CN3CCc4ccccc4C3)c2)c1 (stereo unspecified)	0.101 to 1	> 20	0.101 to 1
OC(COc1cccc(-c2ccc3ncn(C4CNC4)c3c2)c1)CN1CCc2ccccc2C1 (stereo unspecified)	0.101 to 1	1 to 10	1 to 10
Cn1ccc2ccc(-c3cc(NCC(O)CN4CCc5ccccc5C4)ncn3)cc21 (stereo unspecified)	0.101 to 1	10 to 40	0.101 to 1
CNC(=O)c1cncc(-c2cccc(OCC(O)CN3CCc4ccccc4C3)c2)c1 (stereo unspecified)	1 to 10	> 20	1 to 10
CC(=O)N1CCC(n2ccc3cnc(-c4ccnc(NCC(O)CN5CCc6ccccc6C5)c4)nc32)CC1 (stereo unspecified)	< 0.1	0.101 to 1	< 0.1
OC(COc1cccc(-c2csc3ccccc23)c1)CN1CCc2ccccc2C1 (stereo unspecified)	0.101 to 1	> 20	1 to 10
Cn1cnc2c1CN(c1cccc(OCC(O)CN3CCc4ccccc4C3)c1)CC2 (stereo unspecified)	0.101 to 1	> 20	1 to 10
